Like-named read-outs stand apart in the source and are kept apart here.
Legend:
[1] = test system: Na+/K+-ATPase (Adenosine 5′-Triphosphatase isolated from porcine cerebral cortex); experiment: Na+/K+-ATPase inhibitory activity, colorimetric Adenosine 5'-Triphosphatase Enzymatic Assay; assay type: biochemical
Experimental: The inhibitory effect of a compound of the invention on ATPase activity was assessed in vitro using the colorimetric Adenosine 5′-Triphosphatase Enzymatic Assay of Sigma (St. Louis, Mo.) according to the manufacturer's instructions. This assay utilizes Adenosine 5′-Triphosphatase isolated from porcine cerebral cortex. Each reaction was performed in a final volume of 250 μl using 0.5 units/ml enzyme in the presence of different inhibitors. […] IC50 values were determined using the Origin® program software (OriginLab, Northampton, Mass.).

[2] = test system: A549 (Lung); experiment: SRB assay, A549; assay type: cell-based, human; details: for TGI / GI50: A549, SRB, 48 h; for CC50 / GI50: Homo sapiens; for CC50: A549, 48 h, read-out: LC50
Experimental: (§1) SRB assays were performed according to standard National Cancer Institute Guidelines. Briefly, human tumor cells from different cancer panels were seeded into 96 well plates in 100 μL (plating densities ranging from 5-40,000 cells/well depending on the doubling time of individual cell lines) in serum-containing media for twenty-four hours prior to the addition of the compounds to be assayed. After 24 hours, one plate of each cell line was fixed in situ with trichloroacetic acid (TCA). The fixed slides were used to determine the cell population for each cell line at the time of drug addition (Tz). Each compound to be tested was solubilized in DMSO and the desired concentration was then added to the medium and diluted serially 1:10 to provide a total of five or ten drug concentrations plus control (in a final volume of 200 μL). The starting dose before any dilution was 100 uM for all compounds.
(§2) Following drug addition, each culture was incubated for forty-eight hours. The assay was terminated with the addition of cold TCA. The supernatant was discarded, and the plates were washed with tap water and air dried. Sulforhodamine B (SRB) solution was then added to each well. After staining, the bound stain was solubilized and the absorbance was read on an automated plate reader at a wavelength of 515 nm.
(§3) Using the absorbance measurements [time zero, (Tz), control growth, (C), and test growth in the presence of drug at the ten concentration levels (Ti)], the percentage growth was calculated at each of the drug concentrations levels. Percentage growth inhibition was calculated as:
(§4) [(Ti−Tz)/(C−Tz)]×100 for concentrations for which Ti>/=Tz
(§5) [(Ti−Tz)/Tz]×100 for concentrations for which Ti<Tz.
(§6) Three dose response parameters were calculated for each experimental agent. Growth inhibition of 50% (GI50) was calculated from [(Ti−Tz)/(C−Tz)]×100=50, which was the drug concentration resulting in a 50% reduction in the net protein increase (as measured by SRB staining) in control cells during the drug. The drug concentration resulting in total growth inhibition (TGI) was calculated from Ti=Tz. The LC50 (concentration of drug resulting in a 50% reduction in the measured protein at the end of the drug treatment as compared to that at the beginning) indicating a net loss of cells following treatment was calculated from [(Ti−Tz)/Tz]×100=−50.
(§7) Values were calculated for each of these three parameters when the level of activity was reached; however, if the effect was not reached or was exceeded, the value for that parameter was expressed as greater or less than the maximum or minimum concentration tested.
(§8) Table 4 summarizes results characterizing the effects of compound Nos. 120, 12, 61, 1, and 56 on GI50, which measures the cell growth inhibitory power of the compound, TGI, which measures cytostatic effect (TGI) and LC50, which signifies cytotoxic effect. Each of these parameters in Table 4 was calculated in a sulforhodamine B (SRB) assay, which provides a colorimetric measure of a compound's anti-cancer activity. SRB assays were performed with compounds of the invention in 22 different cell lines (shaded in light gray in Table 4), which represent nine different tumor panels (lung, melanoma, ovary, prostate, CNS, breast, pancreas colon and renal). Ouabain and digoxin were used as controls. Paclitaxel was added as a non-Na^+K^+-ATPase inhibitor control.

[3] = test system: ERVK (Lung); experiment: SRB assay, ERVK; assay type: cell-based, human; details: 48 h; for TGI / GI50: ERVK, SRB; for CC50 / GI50: Homo sapiens; for CC50: read-out: LC50
Experimental: as §1, §2, §3, §4, §5, §6, §7, §8

[4] = test system: SKMEL28 (Melanoma); experiment: SRB assay, SKMEL28; assay type: cell-based, human; details: for CC50 / GI50: Homo sapiens; for CC50: SK-MEL-28, 48 h, read-out: LC50; for GI50: SK-MEL-28; for GI50 / TGI: SKMEL28, SRB, 48 h
Experimental: as §1, §2, §3, §4, §5, §6, §7, §8

[5] = test system: MB435 (Melanoma); experiment: SRB assay, MB435; assay type: cell-based, human; details: 48 h; for CC50 / GI50: Homo sapiens; for CC50: read-out: LC50; for GI50 / TGI: MB435, SRB
Experimental: as §1, §2, §3, §4, §5, §6, §7, §8

[6] = test system: OVCAR5 (Ovary); experiment: SRB assay, OVCAR5; assay type: cell-based, human; details: for CC50 / GI50: Homo sapiens; for CC50: OVCAR-5, 48 h, read-out: LC50; for GI50: OVCAR-5; for GI50 / TGI: OVCAR5, SRB, 48 h
Experimental: as §1, §2, §3, §4, §5, §6, §7, §8

[7] = test system: OVCAR3 (Ovary); experiment: SRB assay, OVCAR3; assay type: cell-based, human; details: for CC50 / GI50: Homo sapiens; for CC50: OVCAR-3, 48 h, read-out: LC50; for GI50: OVCAR-3; for GI50 / TGI: OVCAR3, SRB, 48 h
Experimental: as §1, §2, §3, §4, §5, §6, §7, §8

[8] = test system: ADRRES (Ovary); experiment: SRB assay, ADRRES (multidrug resistant NCI-ADR-RES); assay type: cell-based, human; details: for TGI / GI50: ADRRES; for TGI / GI50 / anti-tumor action in multidrug resistant cell line NCI-ADR-RES: SRB; for TGI / CC50 / GI50: 48 h; for CC50 / GI50: Homo sapiens, NCI/ADR-RES; for CC50: read-out: LC50; for anti-tumor action in multidrug resistant cell line NCI-ADR-RES: cells express high levels of MDR1 and P-glycoprotein
Experimental: NCI-ADR-RES cells have been classified as ovarian cancer cells by the National Cancer Institute.
as §1, §2, §3, §4, §5, §6, §7, §8
Table 4 also presents results with Compound Nos. 120, 12, 61, 1, and 56 in a well characterized drug resistant cell line, NCI-ADR-RES, that expresses high levels of MDR1 and P-glycoprotein.

[9] = test system: DU145 (Prostate); experiment: SRB assay, DU145; assay type: cell-based, human; details: for TGI / GI50: DU145, SRB, 48 h; for CC50 / GI50: Homo sapiens; for CC50: DU-145, 48 h, read-out: LC50; for GI50: DU-145
Experimental: as §1, §2, §3, §4, §5, §6, §7, §8

[10] = test system: PCJ (Prostate); experiment: SRB assay, PCJ; assay type: cell-based; details: Homo sapiens, 48 h; for CC50: read-out: LC50; for GI50 / IC (TGI): PCJ, SRB
Experimental: as §1, §2, §3, §4, §5, §6, §7, §8

[11] = test system: SF268 (CNS); experiment: SRB assay, SF268; assay type: cell-based; details: Homo sapiens; for CC50: SF-268, 48 h, read-out: LC50; for GI50 / IC (TGI): SF-268, SF268, SRB, 48 h; for GI50: read-out: GI50; for IC (TGI): read-out: TGI
Experimental: as §1, §2, §3, §4, §5, §6, §7, §8

[12] = test system: HCT116 (Colon); experiment: SRB assay, HCT116; assay type: cell-based; details: Homo sapiens; for CC50: HCT-116, 48 h, read-out: LC50; for GI50 / IC (TGI): HCT-116, HCT116, SRB, 48 h
Experimental: as §1, §2, §3, §4, §5, §6, §7, §8

[13] = test system: CAKJ1 (Renal); experiment: SRB assay, CAKJ1; assay type: cell-based, human; details: 48 h; for TGI / GI50: CAKJ1, SRB; for CC50 / GI50: Homo sapiens; for CC50: read-out: LC50
Experimental: as §1, §2, §3, §4, §5, §6, §7, §8

C[C@]12CCC(=NOC3CCNC3)C=C1CCC1C2CC[C@]2(C)C(=O)CCC12 (stereo partly drawn) [Compound 61, (10R,13S)-10,13-dimethyl-3-(pyrrolidin-3-yloxyimino)-2,3,7,8,9,10,11,12,13,14,15,16-dodecahydro-1H-cyclopenta[a]phenanthren-17(6H)-one]
Na+K+ ATPase inhibitory activity (in words) [1]: strong Na+K+ ATPase inhibitory activities
IC50 ([1]; 0.5 units/ml enzyme, five concentrations 10^−5 to 10^−9M, read-out: Na+ K+ Inhibitory Activity (IC50)): 496 nM
TGI [2]: 514.9 nM
CC50 [2]: 823 nM
GI50 [2]: 207 nM
TGI [3]: 2471 nM
CC50 [3]: 6840 nM
GI50 [3]: 493 nM
CC50 [4]: 12300 nM
GI50 [4]: 993 nM
TGI [4]: 6623 nM
CC50 [5]: 8200 nM
GI50 [5]: 649 nM
TGI [5]: 3378.4 nM
CC50 [6]: 9060 nM
GI50 [6]: 3850 nM
TGI [6]: 6454.9 nM
CC50 [7]: 6120 nM
GI50 [7]: 355 nM
TGI [7]: 800.4 nM
TGI [8]: 1015.6 nM
CC50 [8]: 6070 nM
GI50 [8]: 564 nM
anti-tumor action in multidrug resistant cell line NCI-ADR-RES [8]: potent anti-tumor action
TGI [9]: 626.2 nM
CC50 [9]: 895 nM
GI50 [9]: 357 nM
CC50 [10]: 7420 nM
GI50 [10]: 281 nM
IC (TGI) [10]: 1810 nM
CC50 [11]: 8030 nM
GI50 [11]: 567 nM
IC (TGI) [11]: 3020 nM
CC50 [12]: 9260 nM
GI50 [12]: 286 nM
IC (TGI) [12]: 1310 nM
TGI [13]: 1251.6 nM
CC50 [13]: 6650 nM
GI50 [13]: 268 nM

C[C@]12CCC(=NOCCN)CC1CCC1C2CC[C@]2(C)C(=O)CCC12 (stereo partly drawn) [Compound 1, (10S,13S)-3-(2-aminoethoxyimino)-10,13-dimethyltetradecahydro-1H-cyclopenta[a]phenanthren-17(2H)-one]
Na+K+ ATPase inhibitory activity (in words) [1]: very potent Na+K+ ATPase inhibitors
IC50 ([1]; read-out: Na+K+ ATPase inhibitory activity IC50): 124 nM
TGI [2]: 582.5 nM
CC50 [2]: 850 nM
GI50 [2]: 315 nM
TGI [3]: 640.6 nM
CC50 [3]: 943 nM
GI50 [3]: 338 nM
CC50 [4]: 7540 nM
GI50 [4]: 517 nM
TGI [4]: 928.4 nM
CC50 [5]: 6380 nM
GI50 [5]: 598 nM
TGI [5]: 1399.5 nM
CC50 [6]: 7320 nM
GI50 [6]: 834 nM
TGI [6]: 3763 nM
CC50 [7]: 984 nM
GI50 [7]: 291 nM
TGI [7]: 637.5 nM
TGI [8]: 647.9 nM
CC50 [8]: 944 nM
GI50 [8]: 321 nM
anti-tumor action in multidrug resistant cell line NCI-ADR-RES [8]: potent anti-tumor action
TGI [9]: 588.2 nM
CC50 [9]: 844 nM
GI50 [9]: 332 nM
CC50 [10]: 897 nM
GI50 [10]: 253 nM
IC (TGI) [10]: 575 nM
CC50 [11]: 908 nM
GI50 [11]: 385 nM
IC (TGI) [11]: 647 nM
CC50 [12]: 8100 nM
GI50 [12]: 364 nM
IC (TGI) [12]: 1310 nM
TGI [13]: 643 nM
CC50 [13]: 948 nM
GI50 [13]: 338 nM
